Laboratory results from ChEMBL document CHEMBL1201861, “Genomics of Drug Sensitity in Cancer screening data, Wellcome Trust Sanger Institute”.

Experiments:
RL95-2 = assay: cells; assay type: functional, cell-based; details: Homo sapiens;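 further: RL95-2 growth inhibition determined through a cell viability readout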
Description: SANGER: Inhibition of human RL95-2 cell growth in a cell viability assay.

Kasumi 1 = assay: cells; assay type: functional, cell-based; details: Homo sapiens;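 further: growth inhibition of human Kasumi-1 cells, read out by a cell viability assay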
Description: SANGER: Inhibition of human KASUMI-1 cell growth in a cell viability assay.

ARH-77 = assay: cells; assay type: functional, cell-based; details: Homo sapiens;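 further: growth inhibition of ARH-77 cells, read out by a cell viability assay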
Description: SANGER: Inhibition of human ARH-77 cell growth in a cell viability assay.

RL = assay: cells; assay type: functional, cell-based; details: Homo sapiens
Description: SANGER: Inhibition of human RL cell growth in a cell viability assay.

TALL-1 = assay: cells; assay type: functional, cell-based; details: Homo sapiens;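 further: growth inhibition of cultured human TALL-1 cells, read out by a cell viability assay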
Description: SANGER: Inhibition of human TALL-1 cell growth in a cell viability assay.

HuO9 = assay: cells; assay type: functional, cell-based, Homo sapiens; details: Homo sapiens, HuO9;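 further: growth inhibition of HuO9 cells, read out with a cell viability assay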
Description: SANGER: Inhibition of human HuO9 cell growth in a cell viability assay.

LOUCY = assay: cells; assay type: functional, cell-based; details: Homo sapiens;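 further: growth inhibition of human LOUCY cells, read out with a cell viability assay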
Description: SANGER: Inhibition of human LOUCY cell growth in a cell viability assay.

CAL-148 = assay: cells; assay type: functional, cell-based; details: Homo sapiens
Description: SANGER: Inhibition of human CAL-148 cell growth in a cell viability assay.

THP-1 = assay: cells; assay type: functional, cell-based; details: Homo sapiens;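 further: growth inhibition of THP-1 cells, read out via a cell viability assay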
Description: SANGER: Inhibition of human THP-1 cell growth in a cell viability assay.

MHH-CALL-2 = assay: cells; assay type: functional, cell-based; details: Homo sapiens;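 further: growth inhibition of the cell line, read out in a cell viability assay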
Description: SANGER: Inhibition of human MHH-CALL-2 cell growth in a cell viability assay.

NCI-H64 = assay: cells; assay type: functional, cell-based; details: Homo sapiens;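 further: growth inhibition of NCI-H64 cells, read out with a cell viability assay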
Description: SANGER: Inhibition of human NCI-H64 cell growth in a cell viability assay.

NCI-H322M = assay: cells; assay type: functional, cell-based; details: Homo sapiens;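 further: cell viability assay measuring inhibition of growth of human NCI-H322M cells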
Description: SANGER: Inhibition of human NCI-H322M cell growth in a cell viability assay.

SCLC-21H = assay: cells; assay type: functional, cell-based; details: Homo sapiens;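 further: growth inhibition of cultured human SCLC-21H cells, read out with a cell viability assay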
Description: SANGER: Inhibition of human SCLC-21H cell growth in a cell viability assay.

SCC-3 = assay: cells; assay type: functional, cell-based; details: Homo sapiens;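 further: cell viability assay measuring inhibition of SCC-3 cell growth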
Description: SANGER: Inhibition of human SCC-3 cell growth in a cell viability assay.

U-698-M = assay: cells; assay type: functional, cell-based; details: Homo sapiens
Description: SANGER: Inhibition of human U-698-M cell growth in a cell viability assay.

RPMI-6666 = assay: cells; assay type: functional, cell-based; details: Homo sapiens
Description: SANGER: Inhibition of human RPMI-6666 cell growth in a cell viability assay.

TE-15 = assay: cells; assay type: functional, cell-based; details: Homo sapiens;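 further: cell viability readout of growth inhibition in TE-15 cells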
Description: SANGER: Inhibition of human TE-15 cell growth in a cell viability assay.

LC4-1 = assay: cells; assay type: functional, cell-based; details: Homo sapiens;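 further: growth inhibition of LC4-1 cells, read out with a cell viability assay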
Description: SANGER: Inhibition of human LC4-1 cell growth in a cell viability assay.

BC-3 = assay: cells; assay type: functional, cell-based; details: Homo sapiens;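 further: cell viability assay measuring growth inhibition of human BC-3 cells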
Description: SANGER: Inhibition of human BC-3 cell growth in a cell viability assay.

NCI-H1703 = assay: cells; assay type: functional, cell-based, Homo sapiens; details: Homo sapiens, NCI-H1703;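 further: growth inhibition of NCI-H1703 cells, read out via a cell viability assay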
Description: SANGER: Inhibition of human NCI-H1703 cell growth in a cell viability assay.

CMK = assay: cells; assay type: functional, cell-based; details: Homo sapiens;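 further: growth inhibition of CMK cells, read out as cell viability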
Description: SANGER: Inhibition of human CMK cell growth in a cell viability assay.

MEL-JUSO = assay: cells; assay type: functional, cell-based, Homo sapiens; details: Homo sapiens, MEL-JUSO;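 further: growth inhibition of human MEL-JUSO cells, read out with a cell viability assay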
Description: SANGER: Inhibition of human MEL-JUSO cell growth in a cell viability assay.

NCI-H2227 = assay: cells; assay type: functional, cell-based; details: Homo sapiens;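 further: growth inhibition of the human cell line, read out with a cell viability assay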
Description: SANGER: Inhibition of human NCI-H2227 cell growth in a cell viability assay.

NCCIT = assay: SANGER: Inhibition of human NCCIT cell growth in a cell viability assay.; assay type: functional, cell-based
SNU-16 = assay: cells; assay type: functional, cell-based; details: Homo sapiens;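 further: growth inhibition of human SNU-16 cells, determined with a cell viability readout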
Description: SANGER: Inhibition of human NCI-SNU-16 cell growth in a cell viability assay.

NCI-H345 = assay: cells; assay type: functional, cell-based; details: Homo sapiens;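 further: growth inhibition of NCI-H345 cells measured with a cell viability assay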
Description: SANGER: Inhibition of human NCI-H345 cell growth in a cell viability assay.

EB2 = assay: cells; assay type: functional, cell-based; details: Homo sapiens;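 further: growth inhibition of EB2 cells, read out with a cell viability assay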
Description: SANGER: Inhibition of human EB2 cell growth in a cell viability assay.

NCI-H524 = assay: cells; assay type: functional, cell-based; details: Homo sapiens;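 further: growth inhibition of human NCI-H524 cells, read out through a cell viability assay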
Description: SANGER: Inhibition of human NCI-H524 cell growth in a cell viability assay.

SNU-C1 = assay: cells; assay type: functional, cell-based; details: Homo sapiens;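 further: growth inhibition of SNU-C1 human cells, read out by a cell viability assay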
Description: SANGER: Inhibition of human SNU-C1 cell growth in a cell viability assay.

COR-L279 = assay: SANGER: Inhibition of human COR-L279 cell growth in a cell viability assay.; assay type: functional, cell-based
HCT-15 = assay: cells; assay type: functional, cell-based, Homo sapiens; details: Homo sapiens, HCT-15;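 further: cell viability readout, IC50 reflecting suppression of HCT-15 cell growth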
Description: SANGER: Inhibition of human HCT-15 cell growth in a cell viability assay.

SJRH30 = assay: cells; assay type: functional, cell-based; details: Homo sapiens;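 further: growth inhibition of human SJRH30 cells, read out with a cell viability assay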
Description: SANGER: Inhibition of human SJRH30 cell growth in a cell viability assay.

JIYOYE = assay: cells; assay type: functional, cell-based; details: Homo sapiens
Description: SANGER: Inhibition of human JiyoyeP-2003 cell growth in a cell viability assay.

HSC-4 = assay: cells; assay type: functional, cell-based, Homo sapiens; details: Homo sapiens, HSC-4;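 further: growth inhibition of human HSC-4 cells, read out with a cell viability assay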
Description: SANGER: Inhibition of human HSC-4 cell growth in a cell viability assay.

DG-75 = assay: cells; assay type: functional, cell-based; details: Homo sapiens;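 further: growth inhibition of DG-75 cells, read out with a cell viability assay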
Description: SANGER: Inhibition of human DG-75 cell growth in a cell viability assay.

HT55 = assay: cells; assay type: functional, cell-based, Homo sapiens; details: Homo sapiens, HT55;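 further: cell viability readout measuring growth inhibition of human HT55 cells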
Description: SANGER: Inhibition of human HT55 cell growth in a cell viability assay.

UACC-812 = assay: cells; assay type: functional, cell-based; details: Homo sapiens
Description: SANGER: Inhibition of human UACC-812 cell growth in a cell viability assay.

NCI-H2009 = assay: cells; assay type: functional, cell-based, Homo sapiens; details: Homo sapiens, NCI-H2009;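 further: cell viability assay measuring inhibition of NCI-H2009 cell growth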
Description: SANGER: Inhibition of human NCI-H2009 cell growth in a cell viability assay.

IST-SL2 = assay: cells; assay type: functional, cell-based; details: Homo sapiens;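 further: growth inhibition of human IST-SL2 cells, read out by a cell viability assay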
Description: SANGER: Inhibition of human IST-SL2 cell growth in a cell viability assay.

SU-DHL-1 = assay: SANGER: Inhibition of human SU-DHL-1 cell growth in a cell viability assay.; assay type: functional, cell-based
IM-9 = assay: SANGER: Inhibition of human IM-9 cell growth in a cell viability assay.; assay type: functional, cell-based
TE-441-T = assay: cells; assay type: functional, cell-based; details: Homo sapiens
Description: SANGER: Inhibition of human TE-441-T cell growth in a cell viability assay.

23132-87 = assay: cells; assay type: functional, cell-based, Homo sapiens; details: Homo sapiens
Description: SANGER: Inhibition of human 23132-87 cell growth in a cell viability assay.

MONO-MAC-6 = assay: cells; assay type: functional, cell-based; details: Homo sapiens;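 further: cell viability assay measuring growth inhibition of human MONO-MAC-6 cells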
Description: SANGER: Inhibition of human MONO-MAC-6 cell growth in a cell viability assay.

SIG-M5 = assay: cells; assay type: functional, cell-based; details: Homo sapiens;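 further: cell viability assay read-out, measuring how strongly growth of cultured human SIG-M5 cells is inhibited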
Description: SANGER: Inhibition of human SIG-M5 cell growth in a cell viability assay.

CESS = assay: SANGER: Inhibition of human CESS cell growth in a cell viability assay.; assay type: functional, cell-based
NCI-H1436 = assay: cells; assay type: functional, cell-based; details: Homo sapiens;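 further: growth suppression of human NCI-H1436 cells, determined with a cell viability readout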
Description: SANGER: Inhibition of human NCI-H1436 cell growth in a cell viability assay.

CA46 = assay: cells; assay type: functional, cell-based; details: Homo sapiens;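 further: growth inhibition of human CA46 cells, read out by a cell viability assay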
Description: SANGER: Inhibition of human CA46 cell growth in a cell viability assay.

MOLT-13 = assay: cells; assay type: functional, cell-based; details: Homo sapiens;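 further: IC50 for suppression of MOLT-13 cell growth, read out with a cell viability assay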
Description: SANGER: Inhibition of human MOLT-13 cell growth in a cell viability assay.

Structure (SMILES): CN(c1ncccc1CNc1nc(Nc2ccc3c(c2)CC(=O)N3)ncc1C(F)(F)F)S(C)(=O)=O [PF-00562271]
- IC50 (RL95-2): > 2.56 µM
- IC50 (Kasumi 1): 2330 nM
- IC50 (ARH-77): > 2.56 µM
- IC50 (RL): > 2.56 µM
- IC50 (TALL-1): > 2.56 µM
- IC50 (HuO9): > 2560 nM
- IC50 (LOUCY): 2260 nM
- IC50 (CAL-148): > 2560 nM
- IC50 (THP-1): > 2.56 µM
- IC50 (MHH-CALL-2): > 2.56 µM
- IC50 (NCI-H64): > 2560 nM
- IC50 (NCI-H322M): > 2.56 µM
- IC50 (SCLC-21H): > 2.56 µM
- IC50 (SCC-3): > 2560 nM
- IC50 (U-698-M): > 2560 nM
- IC50 (RPMI-6666): > 2.56 µM
- IC50 (TE-15): > 2560 nM
- IC50 (LC4-1): > 2560 nM
- IC50 (BC-3): > 2.56 µM
- IC50 (NCI-H1703): > 2560 nM
- IC50 (CMK): 2420 nM
- IC50 (MEL-JUSO): 1730 nM
- IC50 (NCI-H2227): > 2.56 µM
- IC50 (NCCIT): > 2.56 µM
- IC50 (SNU-16): > 2560 nM
- IC50 (NCI-H345): > 2560 nM
- IC50 (EB2): > 2560 nM
- IC50 (NCI-H524): > 2.56 µM
- IC50 (SNU-C1): > 2.56 µM
- IC50 (COR-L279): > 2.56 µM
- IC50 (HCT-15): > 2560 nM
- IC50 (SJRH30): > 2560 nM
- IC50 (JIYOYE): > 2.56 µM
- IC50 (HSC-4): > 2560 nM
- IC50 (DG-75): > 2.56 µM
- IC50 (HT55): > 2560 nM
- IC50 (UACC-812): > 2.56 µM
- IC50 (NCI-H2009): > 2560 nM
- IC50 (IST-SL2): > 2.56 µM
- IC50 (SU-DHL-1): > 2.56 µM
- IC50 (IM-9): > 2.56 µM
- IC50 (TE-441-T): > 2560 nM
- IC50 (23132-87): > 2560 nM
- IC50 (MONO-MAC-6): 2.41 µM
- IC50 (SIG-M5): 1480 nM
- IC50 (CESS): > 2.56 µM
- IC50 (NCI-H1436): > 2560 nM
- IC50 (CA46): > 2560 nM

Structure (SMILES): CCc1nc(N)nc(N)c1-c1ccc(Cl)cc1 [PYRIMETHAMINE]
- IC50 (RL95-2): 15.7 µM
- IC50 (Kasumi 1): > 20000 nM
- IC50 (ARH-77): 19.5 µM
- IC50 (RL): > 20 µM
- IC50 (TALL-1): > 20 µM
- IC50 (LOUCY): 10900 nM
- IC50 (CAL-148): > 20000 nM
- IC50 (MOLT-13): > 20 µM
- IC50 (THP-1): > 20 µM
- IC50 (MHH-CALL-2): > 20 µM
- IC50 (NCI-H64): > 20000 nM
- IC50 (NCI-H322M): > 20 µM
- IC50 (SCLC-21H): > 20 µM
- IC50 (SCC-3): 1840 nM
- IC50 (U-698-M): > 20000 nM
- IC50 (RPMI-6666): 14.6 µM
- IC50 (TE-15): > 20000 nM
- IC50 (LC4-1): > 20000 nM
- IC50 (BC-3): 19.5 µM
- IC50 (CMK): 2460 nM
- IC50 (NCI-H2227): > 20 µM
- IC50 (NCCIT): 6.93 µM
- IC50 (SNU-16): > 20000 nM
- IC50 (NCI-H345): > 20000 nM
- IC50 (EB2): > 20000 nM
- IC50 (NCI-H524): > 20 µM
- IC50 (SNU-C1): > 20 µM
- IC50 (COR-L279): 6.37 µM
- IC50 (JIYOYE): 10.9 µM
- IC50 (DG-75): 14.6 µM
- IC50 (UACC-812): > 20 µM
- IC50 (IST-SL2): 11.4 µM
- IC50 (SU-DHL-1): 10.8 µM
- IC50 (IM-9): > 20 µM
- IC50 (TE-441-T): > 20000 nM
- IC50 (MONO-MAC-6): 16.3 µM
- IC50 (SIG-M5): 7980 nM
- IC50 (CESS): 5.71 µM
- IC50 (NCI-H1436): > 20000 nM
- IC50 (CA46): > 20000 nM

Structure (SMILES): O=C(/C=C/c1ccccc1)NC(NC(=S)Nc1cccc2cccnc12)C(Cl)(Cl)Cl (stereo unspecified) [SALUBRINAL]
- IC50 (RL95-2): > 16 µM
- IC50 (Kasumi 1): > 16000 nM
- IC50 (ARH-77): > 16 µM
- IC50 (RL): > 16 µM
- IC50 (TALL-1): > 16 µM
- IC50 (LOUCY): > 16000 nM
- IC50 (CAL-148): > 16000 nM
- IC50 (MOLT-13): > 16 µM
- IC50 (THP-1): > 16 µM
- IC50 (MHH-CALL-2): > 16 µM
- IC50 (NCI-H64): > 16000 nM
- IC50 (NCI-H322M): > 16 µM
- IC50 (SCLC-21H): > 16 µM
- IC50 (SCC-3): > 16000 nM
- IC50 (U-698-M): > 16000 nM
- IC50 (RPMI-6666): > 16 µM
- IC50 (TE-15): > 16000 nM
- IC50 (LC4-1): > 16000 nM
- IC50 (BC-3): 14.8 µM
- IC50 (CMK): 13700 nM
- IC50 (NCI-H2227): > 16 µM
- IC50 (NCCIT): 11.6 µM
- IC50 (SNU-16): > 16000 nM
- IC50 (NCI-H345): > 16000 nM
- IC50 (EB2): > 16000 nM
- IC50 (NCI-H524): > 16 µM
- IC50 (SNU-C1): > 16 µM
- IC50 (COR-L279): > 16 µM
- IC50 (JIYOYE): > 16 µM
- IC50 (DG-75): > 16 µM
- IC50 (UACC-812): > 16 µM
- IC50 (IST-SL2): 11.8 µM
- IC50 (SU-DHL-1): > 16 µM
- IC50 (IM-9): > 16 µM
- IC50 (TE-441-T): > 16000 nM
- IC50 (MONO-MAC-6): 10.5 µM
- IC50 (SIG-M5): > 16000 nM
- IC50 (CESS): 11.7 µM
- IC50 (NCI-H1436): > 16000 nM
- IC50 (CA46): > 16000 nM

Structure (SMILES): CCC1=C[C@@H]2CN(C1)Cc1c([nH]c3ccccc13)[C@@](C(=O)OC)(c1cc3c(cc1OC)N(C)[C@H]1[C@@](O)(C(=O)OC)[C@H](OC(C)=O)[C@]4(CC)C=CCN5CC[C@]31[C@@H]54)C2 [VINORELBINE]
- IC50 (RL95-2): 0.00713 µM
- IC50 (Kasumi 1): 17.7 nM
- IC50 (ARH-77): 0.0178 µM
- IC50 (RL): > 0.064 µM
- IC50 (TALL-1): > 0.064 µM
- IC50 (HuO9): 7.09 nM
- IC50 (LOUCY): 9.69 nM
- IC50 (CAL-148): 15.4 nM
- IC50 (THP-1): > 0.064 µM
- IC50 (MHH-CALL-2): > 0.064 µM
- IC50 (NCI-H64): 7.27 nM
- IC50 (NCI-H322M): > 0.064 µM
- IC50 (SCLC-21H): > 0.064 µM
- IC50 (SCC-3): > 64 nM
- IC50 (U-698-M): 12.2 nM
- IC50 (RPMI-6666): 0.00686 µM
- IC50 (TE-15): 3.1 nM
- IC50 (LC4-1): 7.19 nM
- IC50 (BC-3): 0.0311 µM
- IC50 (NCI-H1703): 2.83 nM
- IC50 (CMK): 13.7 nM
- IC50 (MEL-JUSO): 4.26 nM
- IC50 (NCI-H2227): > 0.064 µM
- IC50 (NCCIT): 0.00542 µM
- IC50 (SNU-16): 38.6 nM
- IC50 (NCI-H345): 44.9 nM
- IC50 (EB2): 6.7 nM
- IC50 (NCI-H524): > 0.064 µM
- IC50 (SNU-C1): > 0.064 µM
- IC50 (COR-L279): > 0.064 µM
- IC50 (HCT-15): > 64 nM
- IC50 (SJRH30): 29.3 nM
- IC50 (JIYOYE): 0.0107 µM
- IC50 (HSC-4): > 64 nM
- IC50 (DG-75): > 0.064 µM
- IC50 (HT55): > 64 nM
- IC50 (UACC-812): > 0.064 µM
- IC50 (NCI-H2009): 8.46 nM
- IC50 (IST-SL2): 0.0171 µM
- IC50 (SU-DHL-1): 0.00945 µM
- IC50 (IM-9): > 0.064 µM
- IC50 (TE-441-T): 34.9 nM
- IC50 (23132-87): 6.95 nM
- IC50 (MONO-MAC-6): 0.0206 µM
- IC50 (SIG-M5): 2.48 nM
- IC50 (CESS): 0.00504 µM
- IC50 (NCI-H1436): 13.6 nM
- IC50 (CA46): 22.2 nM
